According to PubChem BioAssay AID2060508 (Molecular Pharmacology Branch, DTP, NCI, 2025):

tested on: 454973-116-R2-J3-PDC spheroids, viability, % test/control; assay: Anticancer human tumor 454973-116-R2-J3-PDC patient-derived pancreatic carcinoma cell line growth inhibition [GQUAD]; conditions: second compound 3.16 µM; first compound 0.1 µM; hits give low values; spheroids with HUVEC and MSC
Outline: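 Tumor cells were grown as complex spheroids with HUVEC endothelial cells and mesenchymal stem cells as stroma. G-quadruplex stabilizers were combined with targeted agents over half-log dilutions from near the clinical Cmax, or from 10 microM.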
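Note: spheroids exposed to compounds for seven days; 100% = DMSO vehicle control viability.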

SMILES | viability, T/C
CC1COCCN1c1cc(C2(S(C)(=N)=O)CC2)nc(-c2ccnc3[nH]ccc23)n1 (configuration not stated) + CN(C)c1ccc(Nc2c3ccc(NC(=O)CCN4CCCC4)cc3nc3cc(NC(=O)CCN4CCCC4)ccc23)cc1 | 90.8%
COc1ccc([C@@H](O)c2cc(-c3ncnc4cc(N5CCOCC5)ccc34)c(F)cc2Cl)nn1 + CN(C)c1ccc(Nc2c3ccc(NC(=O)CCN4CCCC4)cc3nc3cc(NC(=O)CCN4CCCC4)ccc23)cc1 | 91.2%

same assay, conditions: second compound 3.16 µM; first compound 0.316 µM; hits give low values; spheroids with HUVEC and MSC

SMILES | viability, T/C
CC1COCCN1c1cc(-c2ccnn2C)c2ccnc(-c3ccn[nH]3)c2n1 (configuration not stated) + CN(C)c1ccc(Nc2c3ccc(NC(=O)CCN4CCCC4)cc3nc3cc(NC(=O)CCN4CCCC4)ccc23)cc1 | 38%
CC1COCCN1c1cc(C2(S(C)(=N)=O)CC2)nc(-c2ccnc3[nH]ccc23)n1 (configuration not stated) + CN(C)c1ccc(Nc2c3ccc(NC(=O)CCN4CCCC4)cc3nc3cc(NC(=O)CCN4CCCC4)ccc23)cc1 | 90.1%
COc1ccc([C@@H](O)c2cc(-c3ncnc4cc(N5CCOCC5)ccc34)c(F)cc2Cl)nn1 + CN(C)c1ccc(Nc2c3ccc(NC(=O)CCN4CCCC4)cc3nc3cc(NC(=O)CCN4CCCC4)ccc23)cc1 | 85.2%

same assay, conditions: second compound 3.16 µM; first compound 1 µM; hits give low values; spheroids with HUVEC and MSC

SMILES | viability, T/C
CC1COCCN1c1cc(-c2ccnn2C)c2ccnc(-c3ccn[nH]3)c2n1 (configuration not stated) + CN(C)c1ccc(Nc2c3ccc(NC(=O)CCN4CCCC4)cc3nc3cc(NC(=O)CCN4CCCC4)ccc23)cc1 | 21.3%
CC1COCCN1c1cc(C2(S(C)(=N)=O)CC2)nc(-c2ccnc3[nH]ccc23)n1 (configuration not stated) + CN(C)c1ccc(Nc2c3ccc(NC(=O)CCN4CCCC4)cc3nc3cc(NC(=O)CCN4CCCC4)ccc23)cc1 | 82.8%
COc1ccc([C@@H](O)c2cc(-c3ncnc4cc(N5CCOCC5)ccc34)c(F)cc2Cl)nn1 + CN(C)c1ccc(Nc2c3ccc(NC(=O)CCN4CCCC4)cc3nc3cc(NC(=O)CCN4CCCC4)ccc23)cc1 | 68.9%

same assay, conditions: second compound 3.16 µM; first compound 3.16 µM; hits give low values; spheroids with HUVEC and MSC

SMILES | viability, T/C
CC1COCCN1c1cc(-c2ccnn2C)c2ccnc(-c3ccn[nH]3)c2n1 (configuration not stated) + CN(C)c1ccc(Nc2c3ccc(NC(=O)CCN4CCCC4)cc3nc3cc(NC(=O)CCN4CCCC4)ccc23)cc1 | 26.2%
CC1COCCN1c1cc(C2(S(C)(=N)=O)CC2)nc(-c2ccnc3[nH]ccc23)n1 (configuration not stated) + CN(C)c1ccc(Nc2c3ccc(NC(=O)CCN4CCCC4)cc3nc3cc(NC(=O)CCN4CCCC4)ccc23)cc1 | 66.2%
COc1ccc([C@@H](O)c2cc(-c3ncnc4cc(N5CCOCC5)ccc34)c(F)cc2Cl)nn1 + CN(C)c1ccc(Nc2c3ccc(NC(=O)CCN4CCCC4)cc3nc3cc(NC(=O)CCN4CCCC4)ccc23)cc1 | 59.9%

same assay, conditions: second compound 3.16 µM; first compound 10 µM; hits give low values; spheroids with HUVEC and MSC

SMILES | viability, T/C
CC1COCCN1c1cc(-c2ccnn2C)c2ccnc(-c3ccn[nH]3)c2n1 (configuration not stated) + CN(C)c1ccc(Nc2c3ccc(NC(=O)CCN4CCCC4)cc3nc3cc(NC(=O)CCN4CCCC4)ccc23)cc1 | 27.1%
CC1COCCN1c1cc(C2(S(C)(=N)=O)CC2)nc(-c2ccnc3[nH]ccc23)n1 (configuration not stated) + CN(C)c1ccc(Nc2c3ccc(NC(=O)CCN4CCCC4)cc3nc3cc(NC(=O)CCN4CCCC4)ccc23)cc1 | 37.7%
COc1ccc([C@@H](O)c2cc(-c3ncnc4cc(N5CCOCC5)ccc34)c(F)cc2Cl)nn1 + CN(C)c1ccc(Nc2c3ccc(NC(=O)CCN4CCCC4)cc3nc3cc(NC(=O)CCN4CCCC4)ccc23)cc1 | 40.7%

same assay, conditions: second compound 10 µM; first compound 0.0316 µM; hits give low values; spheroids with HUVEC and MSC

SMILES | viability, T/C
CC1COCCN1c1cc(-c2ccnn2C)c2ccnc(-c3ccn[nH]3)c2n1 (configuration not stated) + CN(C)c1ccc(Nc2c3ccc(NC(=O)CCN4CCCC4)cc3nc3cc(NC(=O)CCN4CCCC4)ccc23)cc1 | 69.8%
CC1COCCN1c1cc(C2(S(C)(=N)=O)CC2)nc(-c2ccnc3[nH]ccc23)n1 (configuration not stated) + CN(C)c1ccc(Nc2c3ccc(NC(=O)CCN4CCCC4)cc3nc3cc(NC(=O)CCN4CCCC4)ccc23)cc1 | 80.5%
COc1ccc([C@@H](O)c2cc(-c3ncnc4cc(N5CCOCC5)ccc34)c(F)cc2Cl)nn1 + CN(C)c1ccc(Nc2c3ccc(NC(=O)CCN4CCCC4)cc3nc3cc(NC(=O)CCN4CCCC4)ccc23)cc1 | 76.6%

same assay, conditions: second compound 10 µM; first compound 0.1 µM; hits give low values; spheroids with HUVEC and MSC

SMILES | viability, T/C
CC1COCCN1c1cc(-c2ccnn2C)c2ccnc(-c3ccn[nH]3)c2n1 (configuration not stated) + CN(C)c1ccc(Nc2c3ccc(NC(=O)CCN4CCCC4)cc3nc3cc(NC(=O)CCN4CCCC4)ccc23)cc1 | 45.5%
CC1COCCN1c1cc(C2(S(C)(=N)=O)CC2)nc(-c2ccnc3[nH]ccc23)n1 (configuration not stated) + CN(C)c1ccc(Nc2c3ccc(NC(=O)CCN4CCCC4)cc3nc3cc(NC(=O)CCN4CCCC4)ccc23)cc1 | 82.1%
COc1ccc([C@@H](O)c2cc(-c3ncnc4cc(N5CCOCC5)ccc34)c(F)cc2Cl)nn1 + CN(C)c1ccc(Nc2c3ccc(NC(=O)CCN4CCCC4)cc3nc3cc(NC(=O)CCN4CCCC4)ccc23)cc1 | 68.2%

same assay, conditions: second compound 10 µM; first compound 0.316 µM; hits give low values; spheroids with HUVEC and MSC

SMILES | viability, T/C
CC1COCCN1c1cc(-c2ccnn2C)c2ccnc(-c3ccn[nH]3)c2n1 (configuration not stated) + CN(C)c1ccc(Nc2c3ccc(NC(=O)CCN4CCCC4)cc3nc3cc(NC(=O)CCN4CCCC4)ccc23)cc1 | 31.4%
CC1COCCN1c1cc(C2(S(C)(=N)=O)CC2)nc(-c2ccnc3[nH]ccc23)n1 (configuration not stated) + CN(C)c1ccc(Nc2c3ccc(NC(=O)CCN4CCCC4)cc3nc3cc(NC(=O)CCN4CCCC4)ccc23)cc1 | 83.7%
COc1ccc([C@@H](O)c2cc(-c3ncnc4cc(N5CCOCC5)ccc34)c(F)cc2Cl)nn1 + CN(C)c1ccc(Nc2c3ccc(NC(=O)CCN4CCCC4)cc3nc3cc(NC(=O)CCN4CCCC4)ccc23)cc1 | 81.9%

same assay, conditions: second compound 10 µM; first compound 1 µM; hits give low values; spheroids with HUVEC and MSC

SMILES | viability, T/C
CC1COCCN1c1cc(-c2ccnn2C)c2ccnc(-c3ccn[nH]3)c2n1 (configuration not stated) + CN(C)c1ccc(Nc2c3ccc(NC(=O)CCN4CCCC4)cc3nc3cc(NC(=O)CCN4CCCC4)ccc23)cc1 | 27.6%
CC1COCCN1c1cc(C2(S(C)(=N)=O)CC2)nc(-c2ccnc3[nH]ccc23)n1 (configuration not stated) + CN(C)c1ccc(Nc2c3ccc(NC(=O)CCN4CCCC4)cc3nc3cc(NC(=O)CCN4CCCC4)ccc23)cc1 | 78.4%
COc1ccc([C@@H](O)c2cc(-c3ncnc4cc(N5CCOCC5)ccc34)c(F)cc2Cl)nn1 + CN(C)c1ccc(Nc2c3ccc(NC(=O)CCN4CCCC4)cc3nc3cc(NC(=O)CCN4CCCC4)ccc23)cc1 | 61.4%

same assay, conditions: second compound 10 µM; first compound 3.16 µM; hits give low values; spheroids with HUVEC and MSC

SMILES | viability, T/C
CC1COCCN1c1cc(-c2ccnn2C)c2ccnc(-c3ccn[nH]3)c2n1 (configuration not stated) + CN(C)c1ccc(Nc2c3ccc(NC(=O)CCN4CCCC4)cc3nc3cc(NC(=O)CCN4CCCC4)ccc23)cc1 | 24.1%
CC1COCCN1c1cc(C2(S(C)(=N)=O)CC2)nc(-c2ccnc3[nH]ccc23)n1 (configuration not stated) + CN(C)c1ccc(Nc2c3ccc(NC(=O)CCN4CCCC4)cc3nc3cc(NC(=O)CCN4CCCC4)ccc23)cc1 | 59.8%
COc1ccc([C@@H](O)c2cc(-c3ncnc4cc(N5CCOCC5)ccc34)c(F)cc2Cl)nn1 + CN(C)c1ccc(Nc2c3ccc(NC(=O)CCN4CCCC4)cc3nc3cc(NC(=O)CCN4CCCC4)ccc23)cc1 | 50%

same assay, conditions: second compound 10 µM; first compound 10 µM; hits give low values; spheroids with HUVEC and MSC

SMILES | viability, T/C
CC1COCCN1c1cc(-c2ccnn2C)c2ccnc(-c3ccn[nH]3)c2n1 (configuration not stated) + CN(C)c1ccc(Nc2c3ccc(NC(=O)CCN4CCCC4)cc3nc3cc(NC(=O)CCN4CCCC4)ccc23)cc1 | 27%
CC1COCCN1c1cc(C2(S(C)(=N)=O)CC2)nc(-c2ccnc3[nH]ccc23)n1 (configuration not stated) + CN(C)c1ccc(Nc2c3ccc(NC(=O)CCN4CCCC4)cc3nc3cc(NC(=O)CCN4CCCC4)ccc23)cc1 | 41.5%
COc1ccc([C@@H](O)c2cc(-c3ncnc4cc(N5CCOCC5)ccc34)c(F)cc2Cl)nn1 + CN(C)c1ccc(Nc2c3ccc(NC(=O)CCN4CCCC4)cc3nc3cc(NC(=O)CCN4CCCC4)ccc23)cc1 | 27.6%
